The structures appear in SMILES notation.

The nature of series [1]: Formation of N-nitroso-N-methylaniline from N-methylaniline with nitrosilating agent (2.5 mM) in citrate buffer at 37° C. The following applies: 2.5 mM agent, 2.5 mM N-methylaniline, pH 6.2. As to the method:
The HPLC separation was performed on a Merck/Hitachi HPLC system consisting of a LaChrom L 7100 pump and a LaChrom DAD L 7450 detector. The system was operated with a data processor working with a LaChrom interface D 7000 and the EZChrom Elite 3.3.1 software. The mixture was separated on a Kinetex EVO C18 column (250×4.6 mm, 5 μm) using a gradient elution system, solvent A was 5% acetonitrile in water (v/v) and B was acetonitrile. Gradient conditions were initial=0% B, 25 min=70% B and 30 min=100% B. The flow rate was constant at 1.0 mL min^−1. The injection loop volume was 20 μL, absorbance was monitored at 272 nm.
The experiment of Example 1 was repeated with a tenfold increase of concentration of the reactants. That is, reaction mixtures were prepared by mixing in citrate buffer, at pH=3.0 and at pH=6.2, N-methylaniline (2.5 mM) and NaCl (2.5 mM) together with an equimolar amount of the tested nitrosilating agent, used either alone or in combination with ascorbic acid, as set out below: […]

A short description of series [2]: Effect on the color of the meat (Hunter L*, a*, b*, colorimeter). The arrangement: species or system beef. The following applies: aerobic conditions, period of 24 h. As to the method: Nitrite is known to be responsible for the characteristic pink color associated with cured meat products and flavor stabilization. The color development and color stability of ground beef treated S-nitroso-cysteine and S-nitroso-N-acetylcysteine after heating to 72° C. was compared to the color of ground beef treated with nitrite. A portable colorimeter (X-rite) was used to measure Hunter color lightness, redness and yellowness (L*, a*, b*) values of ground beef samples treated with the different additives and heated in a microwave oven (Dow, S-Korea, at 800 W) to 72° C. in the center. The instrument was standardized using white and black standard plates.

Series [3] concerns naturally occurring bacteria. Description: Aerobic colony count in smoked beef shoulder pastrami. The following applies: pastrami stored at 4° C. for three months; amount equivalent to 150 ppm sodium nitrite; plates 30° C. 24 hr.
Procedure: Aerobic colony count of naturally occurring bacteria in smoked beef shoulder pastrami: 5 gr of the pastrami manufactured in a meat factory as described above were homogenized in a sterile grinder with 45 ml of sterile saline, then further diluted with saline. The diluents were plated on BHI agar plates and incubated at 30° C. for 24 hr then colonies were counted and CFU calculated.
Series [4] has as its system naturally occurring bacteria. Put plainly: Aerobic colony count in ground beef shoulder. The following applies: 2.5 mM preservative; for bacteria count (aerobic colony count): after 1 week of storage at 4° C.; for bacteria concentration (aerobic colony count): after 4 weeks at 4° C. The procedure:
10 gr of ground beef shoulder was mixed with 1 ml (25 mM) aqueous solution of the tested preservative (Sodium nitrite, S-nitroso-cysteine and S-nitroso-N-acetylcysteine) or DDW for control and 1 ml of NaCl solution (10% w/v). The final concentrations were 2.5 mM preservative (where Kg meat=L) and 1% (w/w) NaCl. The meat was divided to 1 gr portions and placed in open vacuum bags, then heated in a water bath at 75° C. for 15 min and sealed by […] C100 at a vacuum of 8 mbar. The bags were transferred to 4° C. for cooling and storage. After time periods of 1 hr, 1 week and 4 weeks elapsed, the bags were opened in a hood and 1 gr of meat was homogenized in a sterile grinder with 9 ml of sterile saline, then the homogenate was diluted further with saline and the diluents were plated on BHI agar plates. The plates were incubated at 30° C. for 24 hours then colonies were counted and CFU calculated.

For `CC(=O)N[C@@H](CSN=O)C(=O)O` [S-nitroso-N-acetylcysteine], in series [1], the “kinetics of N-nitroso-methylaniline formation (UV absorbance at 270 nm versus time)” value was “significantly lesser”. The “color stability (ΔE*) over time” value in series [2] is “remained stable”. The “aerobic colony count (concentration of bacteria)” value in series [3] was 7*10^3 CFU/ml. In addition, in series [4], the “bacteria count (aerobic colony count)” value was ~2.0*10^2 cfu/ml and the “bacteria concentration (aerobic colony count)” value (“bacteria concentration” below) was “lower bacteria concentration”.

Regarding `N[C@@H](CSN=O)C(=O)O` [S-nitroso-cysteine, S-nitrosocysteine], in series [1], the “kinetics of N-nitroso-methylaniline formation (UV absorbance at 270 nm versus time)” value was “reacts rapidly with N-methylaniline to produce progressively increasing amounts of nitrosamine”. In series [4], the “bacteria count (aerobic colony count)” value was ~2.0*10^2 cfu/ml and the “bacteria concentration” value was “lower bacteria concentration”.

Consider `O=NO` [sodium nitrite], for which the “color stability (ΔE*) over time” value in series [2] is reported as “decreased over time”. For the same compound, the “aerobic colony count (concentration of bacteria)” value in series [3] was 8*10^3 CFU/ml. Besides, in series [4], the “bacteria count (aerobic colony count)” value was 5.8*10^3 cfu/ml and the “bacteria concentration” value is recorded as ~10^8.

The record behind these values is patent publication US11632972B2, “S-nitrosothiol compounds and their combinations with nitrosamine blocking agents for safe food preservation” (YISSUM RESEARCH DEVELOPMENT COMPANY OF THE HEBREW …, priority 2017, dated 2023).
